Reference: patent US4683240A, “Pharmaceutical composition containing an imidazolidinetrione derivative or pharmaceutically acceptable salt thereof” (Nippon Zoki Pharmaceutical Co., Ltd., priority 1985, dated 1987)
Read-outs that look alike come from different tables or passages of the source.

Assays:
[1] = Acute toxicity test (oral); design: species or system mouse (ddY-strain); conditions: mouse, in vivo, male ddY mice, fasted 20 h, deaths over 7 days
Protocol: The test compounds of the present invention suspended in 0.5% aqueous solution of carboxymethylcellulose (C.M.C.) were orally administered to groups of 4 to 6 ddY-strain male mice (weighing about 19 g) which had fasted for 20 hours. The lethal dose was determined by the number of deaths for 7 days thereafter.

Serum Phospholipid = test: Hypolipidemic effect: serum phospholipid; format: in vivo, rat (Wistar-strain); conditions: 100 mg/kg oral, 2 h; for Serum Phospholipid Level: control 79 ± 2 (compounds 2-12), 72 ± 2 (compounds 15-29); for inhibition in vivo at 100 mg/kg: Rattus norvegicus, vs control, read-out: Serum Phospholipid Decrease
Protocol: (§1) The test drugs suspended in 0.5% aqueous C.M.C. solution were orally administered to groups of 8 Wistar-strain male rats (weighing about 185 g) which were fasted for 18 to 20 hours. 2 hours later, the serum was obtained in the same manner described in (2). Serum triglyceride was measured according to the GPO-p-chlorophenol colorimetric determination [Richard W. Spayd et al., Clinical Chemistry, 24, 1343 (1978)], serum free fatty acid was measured according to the Acyl CoA Synthetase-Acyl CoA Oxidase method [Shimizu S. et al., Biochem. Biophys. Res. Commun., 91, 108 (1979)], free fatty acid was measured according to the enzymatic method [Charles C. Allain et al., Clin. Chem., 20, No. 4, 470 (1974)] and total cholesterol was measured according to the enzymatic method [Takayama M. et al., Clinica Chimica Acta, 79, 93 (1977)]. Asterisks indicate significant differences (*: p<0.05, **: p<00.01, ***: p<0.001) from the control.

Blood Glucose = test: Hypoglycemic effect in glucose-loaded fasted rats (blood glucose); format: in vivo, rat (Wistar-strain); conditions: 2 h
Protocol: Groups of 7 Wistar-strain male rats (weighing about 200 g) which were fasted for 18 hours were used for measurement of hypoglycemic effect according to the modified method by Dulin et al. [Dulin, W. L. et al., Proc. Soc. Expl. Med., 107, 245 (1961)]. That is, 0.5 ml/100 g of 20% aqueous solution of glucose was subcutaneously administered to the backs of rats to prevent a decrease in blood glucose level because of the fasting. Immediately thereafter the test drug suspended in 0.5% aqueous C.M.C. solution was orally given, and 2 hours later, the animals underwent laparotomy under pentobarbital anesthesia, then blood was drawn from the vena cava. The obtained blood sample was allowed to stand for 30 minutes to complete the coagulation and was centrifuged to obtain the serum. Blood sugar level was measured according to the mutalotase GOD method [Trinder, Ann. Clin. Biochem., 6, 24 […]]. Asterisks indicate significant differences (*: p<0.05, **: p<0.01, ***: p<0.001) from the control.

Serum Triglyceride = test: Hypolipidemic effect: serum triglyceride; format: in vivo, rat (Wistar-strain); conditions: 100 mg/kg oral, 2 h; for Serum Triglyceride Level: control 65 ± 5 (compounds 2-12), 57 ± 4 (compounds 15-29); for inhibition in vivo at 100 mg/kg: Rattus norvegicus, vs control, read-out: Serum Triglyceride Decrease
Protocol: as §1

Serum Free Fatty Acid = test: Hypolipidemic effect: serum free fatty acid; format: in vivo, rat (Wistar-strain); conditions: 100 mg/kg oral, 2 h; for Serum Free Fatty Acid Level: control 0.53 ± 0.03 (compounds 2-12), 0.52 ± 0.03 (compounds 15-24); for inhibition in vivo at 100 mg/kg: Rattus norvegicus, vs control, read-out: Serum Free Fatty Acid Decrease
Protocol: as §1

Total Serum Cholesterol = test: Hypolipidemic effect: total serum cholesterol; format: in vivo, rat (Wistar-strain); conditions: 100 mg/kg oral, 2 h
Protocol: as §1

[2] = Rattus norvegicus, Table 2, 100 mg/kg oral, vs control, read-out: Blood Glucose Decrease
[3] = Table 2, 100 mg/kg oral, control 133 ± 6

In the case of CN1C(=O)NC(=O)C1=O [compound 2, 1-methylimidazolidinetrione], the LD50 at 168 h [1] is reported as roughly 900 mg/kg, the “Serum Phospholipid Level” value (Serum Phospholipid) is reported as 59 ± 1 mg/dL and the inhibition in vivo at 100 mg/kg (Serum Phospholipid) is reported as 25.3%. For the same molecule, the inhibition in vivo at 12.5 mg/kg (Blood Glucose; Rattus norvegicus, Table 2, 12.5 mg/kg oral, vs control, read-out: Blood Glucose Decrease) was 18%, the inhibition in vivo at 25 mg/kg (Blood Glucose; Rattus norvegicus, Table 2, 25 mg/kg oral, vs control, read-out: Blood Glucose Decrease) was 25.6% and the inhibition in vivo at 50 mg/kg (Blood Glucose; Rattus norvegicus, Table 2, 50 mg/kg oral, vs control, read-out: Blood Glucose Decrease) was 31.6%. For the same molecule, the inhibition in vivo at 100 mg/kg (Blood Glucose; [2]) was 25.6%, the “Blood Glucose Level” value (Blood Glucose; Table 2, 12.5 mg/kg oral, control 133 ± 6) was 109 ± 5 mg/dL and the “Blood Glucose Level” value (Blood Glucose; Table 2, 25 mg/kg oral, control 133 ± 6) was 99 ± 2 mg/dL. The “Blood Glucose Level” value (Blood Glucose; Table 2, 50 mg/kg oral, control 133 ± 6) was 91 ± 4 mg/dL, the “Blood Glucose Level” value (Blood Glucose; [3]) was 99 ± 5 mg/dL and the “Serum Triglyceride Level” value (Serum Triglyceride) was 22 ± 1 mg/dL. For the same molecule, the inhibition in vivo at 100 mg/kg (Serum Triglyceride) was 66.2%, the “Serum Free Fatty Acid Level” value (Serum Free Fatty Acid) was 0.25 ± 0.03 mEq/l and the inhibition in vivo at 100 mg/kg (Serum Free Fatty Acid) was 52.8%.
In the case of O=C1NC(=O)N(Cc2ccccc2)C1=O [compound 15, 1-benzylimidazolidinetrione], the LD50 at 168 h [1] is reported as roughly 1000 mg/kg, the “Serum Phospholipid Level” value (Serum Phospholipid) is reported as 52 ± 1 mg/dL and the inhibition in vivo at 100 mg/kg (Serum Phospholipid) is reported as 27.8%. The inhibition in vivo at 100 mg/kg (Blood Glucose; Rattus norvegicus, Table 3, 100 mg/kg oral, vs control, read-out: Blood Glucose Decrease) was 15.8%, the “Blood Glucose Level” value (Blood Glucose; Table 3, 100 mg/kg oral, control 133 ± 4) was 112 ± 3 mg/dL and the “Serum Triglyceride Level” value (Serum Triglyceride) was 30 ± 1 mg/dL. The inhibition in vivo at 100 mg/kg (Serum Triglyceride) was 47.4%, the “Total Serum Cholesterol Level” value (Total Serum Cholesterol; control 44 ± 2 (compounds 4-12), 41 ± 1 (compounds 15-29)) was 33 ± 1 mg/dL and the inhibition in vivo at 100 mg/kg (Total Serum Cholesterol; Rattus norvegicus, vs control, read-out: Total Serum Cholesterol Decrease) was 19.5%. For the same molecule, the “Serum Free Fatty Acid Level” value (Serum Free Fatty Acid) was 0.44 ± 0.02 mEq/l and the inhibition in vivo at 100 mg/kg (Serum Free Fatty Acid) was 15.4%.
In the case of CCN1C(=O)NC(=O)C1=O [compound 3, 1-ethylimidazolidinetrione], the LD50 at 168 h [1] is reported as roughly 700 mg/kg, the inhibition in vivo at 100 mg/kg (Blood Glucose; [2]) is reported as 24.8% and the “Blood Glucose Level” value (Blood Glucose; [3]) is reported as 100 ± 2 mg/dL.
